Reference: US20220090023A1, “METHODS FOR REGULATING POTENCY OF PLURIPOTENT STEM CELLS AND APPLICATIONS THEREOF” (ACADEMIA SINICA, priority 2018, published 2022)
Like-named read-outs stand apart in the source and are kept apart here.

Legend:
Format in all cases: cell-based, human
PODXL knockdown hESCs = assay: Annexin V/PI apoptosis in PODXL knockdown hESCs with cholesterol; conditions: PODXL knockdown for six days
Experimental: (§1) FIGS. 5A-5B. Cholesterol addition rescue hESC renewal in PODXL knockdown cells. […] Quantification of Annexin V/PI-positive cells was executed in triplicates (bottom left panel). P-values were calculated by performing one-way ANOVA against the shRFP hESCs (*p<0.05, **p<0.01, ***p<0.001). (Bottom right panel) Cholesterol restores the c-MYC/TERT expressions decrease by the expression of shPODXL. Western Blots were executed in PODXL knockdown HUES6 hESCs with the addition of cholesterol for 4 days.
hESCs were dissociated by accutase. The cells were stained according to manufactures' instructions (eBioscience, 88-8005-72). In brief, cells (5×10^5) were suspended at in 100 μl 1× binding buffer, and then stained with 2.5 μl of Annexin V-FITC. After reaction for 20 min at room temperature, the cells were incubated with 2.5 μl of PI solution for 10 min. Then the cells were diluted with PBS and analyzed with a flow cytometer.
To examine if cholesterol is the major downstream of PODXL, rescue experiment with cholesterol was performed.

CRL2097 = assay: iPSC reprogramming efficiency with cholesterol (alkaline phosphatase assay); conditions: with OSKM 4 factors
Experimental: FIG. 6. The addition of cholesterol promote the iPSCs reprogramming efficiency. CRL2097 (passage 9) were seeded and infected with lentivirual vector (OSKM) with final concentration of cholesterol (0, 0.5×, 1×, 2×, 5×, 8×) which was diluted from 500× concentrated SyntheChol® NSO Supplement (S5442, Sigma). Alkaline phosphatase assay was performed to assay the reprogramming efficiency.
CRL2097 (passage 9) were seeded and infected with lentivirual vector (OSKM) with final concentration of cholesterol (0, 0.5×, 1×, 2×, 5×, 8×) which was diluted from 500× concentrated SyntheChol® NSO Supplement (S5442, Sigma). After 4 days viral transduction, cell were replated on matrigel-coated 6-well plates as cell number 27, 000 per well. 2 days later for cell attachment, cholesterol were supplied continually during reprogramming procedure. To better evaluate cholesterol effect to iPSC generation, serum-free defined E8 medium (containing 250 μM sodium butyrate, 50 μg/ml Vitamin C) was used for iPSC generation.
In addition, cholesterol can boost the reprogramming efficiency (total AP positive, 7.62-fold) with OSKM 4 factors.

[1] = tested on: PODXL downregulated HUES6 hESCs; assay: Cholesterol rescue in PODXL knockdown hESCs (Alamar blue, ALP activity); conditions: cholesterol addition for 4 days
Experimental: as §1
(§2) hESCs were cultured with Essential 8 medium (Thermo Fisher, A1517001) which containing 15% Alamar blue at 37° C. for 5 hours. The activities were calculated by measuring absorbance at 570 nm and 600 nm. To count the cell numbers with trypan blue assay, cells were treated with trypsin and the suspended cells were mixed 0.2% trypan blue (1:1) and counted with a hemocytometer.
Alkaline phosphatase (ALP) activities were calculated by adding the substrate of ALP, p-nitrophenyl phosphate (pNPP) (N7653, sigma), in the culture medium. The plate were incubated at 37° C. less than 5 minutes, then the absorbance was measured at 405 nm. For Alkaline phosphatase (ALP) staining, hPSCs were first washed with PBS and used 4% formaldehyde as a fixative. After fixing for 3 minutes, the cells were washed with 1×PBS and were stained by ALP staining reagent (Sigma). Then the cells were further washed by PBS. […]

[2] = tested on: c-MYC, TERT, HMGCR, PODXL, TRA-1-60; assay: Western blot in PODXL knockdown hESCs with cholesterol; conditions: PODXL downregulated cells, cholesterol for 4 days
Experimental: as §1
Whole-cell protein extracts were purified from hPSCs or using RIPA lysis buffer (1% NP40, 50 mM Tris, pH 8.0, 150 mM NaCl, 2 mM EDTA) with the presence of protease inhibitor cocktail (Roche, 04693132001). Protein concentration was quantified by Bio-Rad Bradford Protein Assay. Equal amounts of protein were subjected to a 10% SDS-PAGE gel and blotted onto 0.22 um PVDF membrane (Millipore, ISEQ00010). Blots were blocked in 5% BSA/TBST at room temperature for 1 hr. The blots were incubated with the primary antibodies in 5% BSA/TBST at 4° C. overnight. […]

H9 = assay: IC50 analyses of three inhibitors of cell growth, H9
Experimental: (§3) For feeder-free experiments, cells were cultured in a chemically defined medium (Essential 8 medium).
as §2
(§4) To check the functional roles of cholesterol on pluripotency, cholesterol inhibitor simvastatin, AY9944, Methyl-β-cyclodextrin (MBCD) were used to inhibit cholesterol biosynthesis (FIG. 4A). […] HMGCR is the rate-limiting enzyme of cholesterol biosynthesis. The side effects of statin are few and no cytotoxic side effects in human has been reported. AY9944 inhibits Δ7-dehydrocholesterol reductase (DHCR7), and decrease levels of cholesterol (Wassila Gaoua, 2000). Methyl-β-cyclodextrin (MBCD) directly deprived cellular cholesterol (Mahammad and Parmryd, 2015) (FIG. 4A). […] Next, we would like to know whether PSCs are more rely on cholesterol pathway. Thus, we compared the sensitivities of three cholesterol inhibitors in PSCs and three somatic fibroblast cells. […]

HUES6 = assay: IC50 analyses of three inhibitors of cell growth, HUES6
Experimental: as §3, §2, §4

CRL-2097 = assay: IC50 analyses of three inhibitors of cell growth, CRL-2097; conditions: for IC50 higher in primary fibroblasts than HUES6: primary fibroblasts vs HUES6
Description: (§5) To check the functional roles of cholesterol on pluripotency, cholesterol inhibitor simvastatin, AY9944, Methyl-β-cyclodextrin (MBCD) were used to inhibit cholesterol biosynthesis (FIG. 4A). […] HMGCR is the rate-limiting enzyme of cholesterol biosynthesis. The side effects of statin are few and no cytotoxic side effects in human has been reported. AY9944 inhibits Δ7-dehydrocholesterol reductase (DHCR7), and decrease levels of cholesterol (Wassila Gaoua, 2000). Methyl-β-cyclodextrin (MBCD) directly deprived cellular cholesterol (Mahammad and Parmryd, 2015) (FIG. 4A). […] Next, we would like to know whether PSCs are more rely on cholesterol pathway. Thus, we compared the sensitivities of three cholesterol inhibitors in PSCs and three somatic fibroblast cells. Primary human foreskin fibroblasts (CRL-2097), a human foreskin fibroblast cell line (BJ-5Ta), and a fetal lung fibroblast cell line (IMR-90) were used for comparison.

hBMSC = assay: IC50 analyses of three inhibitors of cell growth, hBMSC; conditions: for IC50: hBMSC, inhibitor treatments for 3 days; for hPSCs more sensitive than human bone marrow mesenchymal stem cells (hBMMSCs): hBMMSCs vs hPSCs
Experimental: (§6) Human BMMSCs (Lonza) were cultured in MSC NutriStem XF Medium (Defined, xeno-free, serum-free medium) and grown on Corning CellBIND Surface plates with inhibitor treatments for 3 days. Human neural stem cells (NSCs) were differentiated from H9 hESCs with Gibco PSC Neural Induction Medium (serum-free medium) for 7 days. And the NSCs were replated on matrigel-coated plate and supplied with each inhibitors for 3 days.
as §5

BJ-5Ta = assay: IC50 analyses of three inhibitors of cell growth, BJ-5Ta
Description: as §5

hNSC = assay: IC50 analyses of three inhibitors of cell growth, hNSC; conditions: for IC50: hNSC, inhibitors for 3 days; for hPSCs more sensitive than human neural stem cells (hNSCs): hNSCs vs hPSCs
Experimental: as §6, §5

IMR-90 = assay: IC50 analyses of three inhibitors of cell growth, IMR-90
Description: as §5

[3] = tested on: PODXL overexpressing hESCs; assay: Inhibitor treatment of PODXL overexpressing hESCs (Alamar blue, ALP activity); conditions: PODXL overexpressed one day, then inhibitor treatment for 3 days
Experimental: as §2

HUES6 hESCs = assay: Alkaline phosphatase activity after cholesterol inhibitor treatment; conditions: treatment for 3 days
Description: as §5

Molecule: CC(C)CCC[C@@H](C)[C@H]1CC[C@H]2[C@@H]3CC=C4C[C@@H](O)CC[C@]4(C)[C@H]3CC[C@]12C [cholesterol]
- apoptosis of the hPSCs (PODXL knockdown hESCs): substantially restored
- reprogramming efficiency (total AP positive) (CRL2097): 7.62 fold
- relative cell number loss from PODXL knockdown ([1]; Alamar blue): prevent
- reduction in ALP activity from PODXL knockdown [1]: prevent
- expression levels of c-MYC, TERT, HMGCR, PODXL, TRA-1-60 [2]: rescued

Molecule: CCC(C)(C)C(=O)O[C@H]1C[C@@H](C)C=C2C=C[C@H](C)[C@H](CC[C@@H]3C[C@@H](O)CC(=O)O3)[C@H]21 [Simvastatin, (1S,3R,7S,8S,8aR)-1,2,3,7,8,8a-Hexahydro-3,7-dimethyl-8-[2-[(2R,4R)-tetrahydro-4-hydroxy-6-oxo-2H-pyran-2-yl]ethyl]-1-naphthalenyly-2,2-dimethyl butanoate]
- IC50 (H9; Homo sapiens): 0.02 µM
- IC50 (HUES6; Homo sapiens): 0.16 µM
- IC50 (CRL-2097; Homo sapiens, CRL-2097, no serum): 4.35 µM
- IC50 (CRL-2097; Homo sapiens, CRL-2097, serum): 5.44 µM
- IC50 higher in primary fibroblasts than HUES6 (CRL-2097): 52 fold
- IC50 (hBMSC; Homo sapiens, 72 h): 8.97 µM
- hPSCs more sensitive than human bone marrow mesenchymal stem cells (hBMMSCs) (hBMSC): 163 fold
- IC50 (BJ-5Ta; Homo sapiens, no serum): 1.96 µM
- IC50 (BJ-5Ta; Homo sapiens, serum): 4.36 µM
- IC50 (hNSC; Homo sapiens, 72 h): 31.2 µM
- hPSCs more sensitive than human neural stem cells (hNSCs) (hNSC): 568 fold
- IC50 (IMR-90; Homo sapiens, IMR-90, IMR-90, no serum): 5.46 µM
- IC50 (IMR-90; Homo sapiens, IMR-90, IMR-90, serum): 4.13 µM

Molecule: Methyl-β-cyclodextrin [MBCD]
- IC50 (H9): 1130 µM
- upregulation in self-renewal (cell growth and ALP activity) by PODXL overexpression [3]: inhibited
- IC50 (HUES6): 1350 µM
- IC50 (CRL-2097; CRL-2097, no serum): 2600 µM
- IC50 (CRL-2097; CRL-2097, serum): 3860 µM
- IC50 higher in primary fibroblasts than HUES6 (CRL-2097): 2 fold
- hPSCs more sensitive than human bone marrow mesenchymal stem cells (hBMMSCs) (hBMSC): 2.65 fold
- IC50 (hBMSC): 3290 µM
- IC50 (BJ-5Ta; no serum): 2340 µM
- IC50 (BJ-5Ta; serum): 3770 µM
- Alkaline phosphatase activities (stem cell marker expression) (HUES6 hESCs): hampered
- IC50 (hNSC): 3020 µM
- hPSCs more sensitive than human neural stem cells (hNSCs) (hNSC): 2.44 fold
- IC50 (IMR-90; IMR-90, no serum): 2640 µM
- IC50 (IMR-90; IMR-90, serum): 2810 µM
